Results taken from PubChem BioAssay AID330 (DTP/NCI, 2004).
Several values for one entry are separate records, joined by “and”; a condition that tells them apart may be missing. Equal values may be shown once. Toxic doses and inconclusive results are not listed. Rule for the calls: active = survival T/C of 150% or more; inactive = T/C below 125% in these data.

System: P388 leukemia ip, CD2F1 mice, survival T/C
Assay: NCI In Vivo Anticancer Drug Screen. Data for tumor model P388 Leukemia (intraperitoneal) in CD2F1 (CDF1) mice
Conditions: endpoint: median survival time, higher = longer survival
Outline: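 Mice carrying the transplanted tumor received test compound or vehicle. Survival was recorded in each group, and the value is the treated-group measurement divided by that of the vehicle-treated control group.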

[1] = dose: 50.0 mg/kg/injection, schedule: Q01DX005 (ip), vehicle: saline with Tween-80
[2] = dose: 100.0 mg/kg/injection, schedule: Q01DX005 (ip), vehicle: saline with Tween-80
[3] = dose: 200.0 mg/kg/injection, schedule: Q01DX005 (ip), vehicle: saline with Tween-80
[4] = dose: 50.0 mg/kg/injection, schedule: Q01DX005 (ip), vehicle: Klucel (hydroxypropylcellulose) (HPC)
[5] = dose: 100.0 mg/kg/injection, schedule: Q01DX005 (ip), vehicle: Klucel (hydroxypropylcellulose) (HPC)
[6] = dose: 60.0 mg/kg/injection, schedule: Q01DX005 (ip), vehicle: saline with Tween-80
[7] = dose: 120.0 mg/kg/injection, schedule: Q01DX005 (ip), vehicle: saline with Tween-80
[8] = dose: 240.0 mg/kg/injection, schedule: Q01DX005 (ip), vehicle: saline with Tween-80
[9] = dose: 100.0 mg/kg/injection, schedule: Q04DX002 (ip), vehicle: saline with Tween-80
[10] = dose: 200.0 mg/kg/injection, schedule: Q04DX002 (ip), vehicle: saline with Tween-80
[11] = dose: 400.0 mg/kg/injection, schedule: Q04DX002 (ip), vehicle: saline with Tween-80
[12] = dose: 50.0 mg/kg/injection, schedule: Q01DX009 (ip), vehicle: Klucel (hydroxypropylcellulose) (HPC)
[13] = dose: 12.5 mg/kg/injection, schedule: Q01DX005 (ip), vehicle: Klucel (hydroxypropylcellulose) (HPC)
[14] = dose: 25.0 mg/kg/injection, schedule: Q01DX005 (ip), vehicle: Klucel (hydroxypropylcellulose) (HPC)

Measured: T/C

CC1(C)CC(=O)c2ccccc21
inactive: dose: 3.12 mg/kg/injection, schedule: Q01DX005 (ip), vehicle: saline with Tween-80 106 % of control | dose: 6.25 mg/kg/injection, schedule: Q01DX005 (ip), vehicle: saline with Tween-80 103 % of control | dose: 12.5 mg/kg/injection, schedule: Q01DX005 (ip), vehicle: saline with Tween-80 113 % of control | dose: 25.0 mg/kg/injection, schedule: Q01DX005 (ip), vehicle: saline with Tween-80 113 % of control

Cc1[nH]c2ccccc2c1-c1cc(-c2cc(-c3c(C)[nH]c4ccccc34)on2)no1
inactive: dose: 60.0 mg/kg/injection, schedule: Q01DX005 (ip), vehicle: Klucel + Tween-80 97 % of control | dose: 120.0 mg/kg/injection, schedule: Q01DX005 (ip), vehicle: Klucel + Tween-80 100 % of control | dose: 240.0 mg/kg/injection, schedule: Q01DX005 (ip), vehicle: Klucel + Tween-80 103 % of control

O=CCC(O)C(O)C(O)CO (configuration not stated)
inactive: dose: 150.0 mg/kg/injection, schedule: Q01DX009 (ip), vehicle: saline 107 % of control | dose: 300.0 mg/kg/injection, schedule: Q01DX009 (ip), vehicle: saline 100 % of control and 104 % of control and 121 % of control | dose: 600.0 mg/kg/injection, schedule: Q01DX009 (ip), vehicle: saline 107 % of control and 112 % of control and 121 % of control | dose: 1200.0 mg/kg/injection, schedule: Q01DX009 (ip), vehicle: saline 103 % of control | dose: 2400.0 mg/kg/injection, schedule: Q01DX009 (ip), vehicle: saline 110 % of control and 91 % of control

C=CCNC(=O)SCC
inactive: [1] 107 % of control | [2] 116 % of control

CCCCN(CCCC)CC(O)c1cc2ccc(C(F)(F)F)cc2c2cc(C(F)(F)F)ccc12 (configuration not stated)
inactive: dose: 6.25 mg/kg/injection, schedule: Q01DX009 (ip), vehicle: saline with Tween-80 93 % of control | dose: 12.5 mg/kg/injection, schedule: Q01DX009 (ip), vehicle: saline with Tween-80 94 % of control | dose: 25.0 mg/kg/injection, schedule: Q01DX009 (ip), vehicle: saline with Tween-80 88 % of control | dose: 100.0 mg/kg/injection, schedule: Q01DX009 (ip), vehicle: saline with Tween-80 100 % of control | dose: 200.0 mg/kg/injection, schedule: Q01DX009 (ip), vehicle: saline with Tween-80 99 % of control

CCCCOc1ccc(C(=S)NC(=O)Nc2ccccc2)cc1
inactive: dose: 3.0 mg/kg/injection, schedule: Q01DX009 (ip), vehicle: saline with Tween-80 123 % of control | dose: 6.0 mg/kg/injection, schedule: Q01DX009 (ip), vehicle: saline with Tween-80 103 % of control | dose: 12.0 mg/kg/injection, schedule: Q01DX009 (ip), vehicle: saline with Tween-80 98 % of control

O=C(CBr)Oc1ccc([N+](=O)[O-])cc1
inactive: [1] 102 % of control | [2] 100 % of control | [3] 100 % of control

Cc1nc2ccccc2c(=O)n1N1C2CCCC21 (configuration not stated)
inactive: dose: 50.0 mg/kg/injection, schedule: Q04DX002 (ip), vehicle: Klucel (hydroxypropylcellulose) (HPC) 103 % of control | dose: 100.0 mg/kg/injection, schedule: Q04DX002 (ip), vehicle: Klucel (hydroxypropylcellulose) (HPC) 98 % of control | dose: 200.0 mg/kg/injection, schedule: Q04DX002 (ip), vehicle: Klucel (hydroxypropylcellulose) (HPC) 100 % of control

NC(N)=N/N=C1/C=C2C/C(=N\N=C(N)N)C=C2C1
inactive: [4] 106 % of control | [5] 104 % of control

CCc1nc(N)nc(N)c1-c1ccc(Cl)c(Cl)c1.[Cl][Pd][Cl]
inactive: dose: 12.5 mg/kg/injection, schedule: Q04DX003 (ip), vehicle: saline with Tween-80 95 % of control

CN(C(=O)C(F)(F)F)[Si](C)(C)C
inactive: [1] 100 % of control | [2] 105 % of control | [3] 95 % of control

Oc1ccc(C2COc3c(ccc(O)c3O)C2)cc1 (configuration not stated)
inactive: [6] 98 % of control | [7] 100 % of control | [8] 101 % of control

COc1ccc(-n2c(=O)c(N=Nc3ccccc3C)c(O)n(-c3ccccc3Cl)c2=S)cc1
inactive: dose: 100.0 mg/kg/injection, schedule: Q01DX001 (ip), vehicle: Klucel (hydroxypropylcellulose) (HPC) 100 % of control | dose: 200.0 mg/kg/injection, schedule: Q01DX001 (ip), vehicle: Klucel (hydroxypropylcellulose) (HPC) 99 % of control | dose: 400.0 mg/kg/injection, schedule: Q01DX001 (ip), vehicle: Klucel (hydroxypropylcellulose) (HPC) 95 % of control

Cc1nn(C(N)=S)c(C)c1N=Nc1cc(Cl)ccc1Cl
inactive: [1] 94 % of control | [2] 86 % of control | [3] 88 % of control

CC(C)OCc1cn[nH]n1
inactive: [6] 100 % of control | [7] 97 % of control | [8] 103 % of control

CC(C)n1c(Cl)c(C(=O)O)c2ccccc21
inactive: [9] 100 % of control | [10] 98 % of control | [11] 100 % of control

O=C(NO)C(O)C(O)C(O)CO (configuration not stated)
inactive: dose: 50.0 mg/kg/injection, schedule: Q01DX009 (ip), vehicle: saline 101 % of control | dose: 100.0 mg/kg/injection, schedule: Q01DX009 (ip), vehicle: saline 104 % of control | dose: 200.0 mg/kg/injection, schedule: Q01DX009 (ip), vehicle: saline 104 % of control

COc1ccc2nc3c(C)c4ccn(Cc5ccc(I)cc5)cc4c(C)c3c2c1
inactive: dose: 13.5 mg/kg/injection, schedule: Q04DX002 (ip), vehicle: saline with Tween-80 116 % of control | dose: 27.0 mg/kg/injection, schedule: Q04DX002 (ip), vehicle: saline with Tween-80 113 % of control | dose: 54.0 mg/kg/injection, schedule: Q04DX002 (ip), vehicle: saline with Tween-80 122 % of control | dose: 108.0 mg/kg/injection, schedule: Q04DX002 (ip), vehicle: saline with Tween-80 105 % of control

CCc1cccc(CC)c1NC(=O)c1ccc(C)cc1
inactive: [6] 91 % of control | [7] 86 % of control

COc1ccc(-n2nc3c(c2-c2cccnc2)CCCc2ccccc2-3)cc1
inactive: [1] 95 % of control | [2] 106 % of control | [3] 101 % of control

O=C(c1cccs1)c1ccc(Cl)cc1Cl
inactive: [12] 107 % of control | dose: 100.0 mg/kg/injection, schedule: Q01DX009 (ip), vehicle: Klucel (hydroxypropylcellulose) (HPC) 103 % of control | dose: 200.0 mg/kg/injection, schedule: Q01DX009 (ip), vehicle: Klucel (hydroxypropylcellulose) (HPC) 104 % of control

CCC1=CCC2C(=O)C3CC(CC)=CCC3C(=O)C2C1 (configuration not stated)
inactive: [13] 97 % of control | [14] 92 % of control | [4] 87 % of control and 88 % of control

Cc1ccc(-n2c(C)nc3[nH]cc(C)c3c2=N)cc1
inactive: dose: 6.25 mg/kg/injection, schedule: Q01DX005 (ip), vehicle: Klucel (hydroxypropylcellulose) (HPC) 101 % of control | [13] 99 % of control | [14] 99 % of control

O=Cc1cccc(C=O)c1
inactive: dose: 0.63 mg/kg/injection, schedule: Q04DX002 (ip), vehicle: saline with Tween-80 106 % of control | dose: 1.25 mg/kg/injection, schedule: Q04DX002 (ip), vehicle: saline with Tween-80 105 % of control | dose: 2.5 mg/kg/injection, schedule: Q04DX002 (ip), vehicle: saline with Tween-80 107 % of control

COc1ccc2c3c([nH]c2c1)C(C)N(S(=O)(=O)c1ccccc1)CC3 (configuration not stated)
inactive: [13] 98 % of control | [14] 92 % of control | [4] 98 % of control | [5] 98 % of control | dose: 200.0 mg/kg/injection, schedule: Q01DX005 (ip), vehicle: Klucel (hydroxypropylcellulose) (HPC) 93 % of control

c1ccc2c(c1)N=Nc1ccccc1OCCOCCOCCOCCO2
inactive: [9] 106 % of control | [10] 100 % of control | [11] 99 % of control

CSC(=N\N=C\c1cccs1)/N=C/N(C)C
inactive: [6] 92 % of control | [7] 99 % of control | [8] 97 % of control

CN(C/C=C/CN(C)N=O)N=O
inactive: dose: 12.5 mg/kg/injection, schedule: Q01DX009 (ip), vehicle: Klucel (hydroxypropylcellulose) (HPC) 116 % of control | dose: 25.0 mg/kg/injection, schedule: Q01DX009 (ip), vehicle: Klucel (hydroxypropylcellulose) (HPC) 118 % of control | [12] 96 % of control
